US20250019387A1 (Frontier Medicines Corporation, priority 0001, published 2025)

molecular target: KRAS G12C and cRAF (Ras-binding domain) interaction (Homo sapiens (Human), UniProt P01116, C118S/C51S/C80L/G12C); test: Inhibition of KRAS G12C and cRAF binding (AlphaScreen); details: GMPPNP-loaded KRAS G12C, 19-20 hours incubation with compound; read-out: IC50 (Inhibition of KRAS G12C and cRAF Binding)
Outline: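 IC50 values come from 4-parameter nonlinear regression of AlphaScreen signal (680 nm excitation, 570 nm emission). Compound plates sat 19-20 h at room temperature before RBD and donor/acceptor beads were added in Hepes pH 7.4 buffer with 150 mM NaCl, 5 mM MgCl2, 2% DMSO for 60-90 min; biotin-AviTag-GST replaced RBD to flag assay-technology interferers.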

Sequence of KRAS G12C and cRAF (Ras-binding domain) interaction (P01116 other isoform, or with tags, fused parts or gaps G12C/C51S/C80L/C118S): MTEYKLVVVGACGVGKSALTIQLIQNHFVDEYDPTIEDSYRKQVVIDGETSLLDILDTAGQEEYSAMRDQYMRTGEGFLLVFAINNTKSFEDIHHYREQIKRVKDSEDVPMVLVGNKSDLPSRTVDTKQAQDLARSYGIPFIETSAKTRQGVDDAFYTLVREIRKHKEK

IC50 [nM] | SMILES
10 to 100 | CN(c1nc(OC[C@@]23CCCN2C[C@H](F)C3)nc2c(F)c(-c3cccc4ccc(F)c(Cl)c34)ncc12)[C@@H]1CCN(C(=O)C#CCN2CC(F)(F)C2)C1 [Example 209, 1-((R)-3-((7-(8-chloro-7-fluoronaphthalen-1-yl)-8-fluoro-2-(((2R,7aS)-2-fluorohexahydro-1H-pyrrolizin-7a-yl)methoxy)pyrido[4,3-d]pyrimidin-4-yl)(methyl)amino)pyrrolidin-1-yl)-4-(3,3-difluoroazetidin-1-yl)but-2-yn-1-one]
10 to 100 | CC(C)N1CC[C@@H]1/C=C/C(=O)N1CC[C@@H](N(C)c2nc(OC[C@@]34CCCN3C[C@H](F)C4)nc3c(F)c(-c4cccc5ccc(F)c(Cl)c45)ncc23)C1 [Example 211, (E)-1-((R)-3-((7-(8-chloro-7-fluoronaphthalen-1-yl)-8-fluoro-2-(((2R,7aS)-2-fluorotetrahydro-1H-pyrrolizin-7a(5H)-yl)methoxy)pyrido[4,3-d]pyrimidin-4-yl)(methyl)amino)pyrrolidin-1-yl)-3-((R)-1-isopropylazetidin-2-yl)prop-2-en-1-one]
10 to 100 | COCCN1CC[C@@H]1/C=C/C(=O)N1CC[C@@H](N(C)c2nc(OC[C@@]34CCCN3C[C@H](F)C4)nc3c(F)c(-c4cccc5ccc(F)c(Cl)c45)ncc23)C1 [Example 212, (E)-1-((R)-3-((7-(8-chloro-7-fluoronaphthalen-1-yl)-8-fluoro-2-(((2R,7aS)-2-fluorotetrahydro-1H-pyrrolizin-7a(5H)-yl)methoxy)pyrido[4,3-d]pyrimidin-4-yl)(methyl)amino)pyrrolidin-1-yl)-3-((R)-1-(2-methoxyethyl)azetidin-2-yl)prop-2-en-1-one]
10 to 100 | CN(c1nc(OC[C@@]23CCCN2C[C@H](F)C3)nc2c(F)c(-c3cccc4ccc(F)c(Cl)c34)ncc12)[C@@H]1CCN(C(=O)/C=C/[C@H]2CCN2CC2COC2)C1 [Example 213, (E)-1-((R)-3-((7-(8-chloro-7-fluoronaphthalen-1-yl)-8-fluoro-2-(((2R,7aS)-2-fluorotetrahydro-1H-pyrrolizin-7a(5H)-yl)methoxy)pyrido[4,3-d]pyrimidin-4-yl)(methyl)amino)pyrrolidin-1-yl)-3-((R)-1-(oxetan-3-ylmethyl)azetidin-2-yl)prop-2-en-1-one]
100 to 500 | Cc1nsc(/C=C/C(=O)N2C[C@H](F)[C@@H](N(C)c3nc(OC[C@@]45CCCN4C[C@H](F)C5)nc4c(F)c(-c5cccc6cccc(Cl)c56)ncc34)C2)n1 [Example 215, (E)-1-((3S,4S)-3-((7-(8-chloronaphthalen-1-yl)-8-fluoro-2-(((2R,7aS)-2-fluorohexahydro-1H-pyrrolizin-7a-yl)methoxy)pyrido[4,3-d]pyrimidin-4-yl)(methyl)amino)-4-fluoropyrrolidin-1-yl)-3-(3-methyl-1,2,4-thiadiazol-5-yl)prop-2-en-1-one]
100 to 500 | Cc1nccc(/C=C/C(=O)N2C[C@H](F)[C@@H](N(C)c3nc(OC[C@@]45CCCN4C[C@H](F)C5)nc4c(F)c(-c5cccc6cccc(Cl)c56)ncc34)C2)n1 [Example 216, (E)-1-((3S,4S)-3-((7-(8-chloronaphthalen-1-yl)-8-fluoro-2-(((2R,7aS)-2-fluorotetrahydro-1H-pyrrolizin-7a(5H)-yl)methoxy)pyrido[4,3-d]pyrimidin-4-yl)(methyl)amino)-4-fluoropyrrolidin-1-yl)-3-(2-methylpyrimidin-4-yl)prop-2-en-1-one]
> 500 | CN(c1nc(OC[C@@]23CCCN2C[C@H](F)C3)nc2c(F)c(-c3cccc4cccc(Cl)c34)ncc12)[C@@H]1CN(C(=O)/C=C/c2nc(C(C)(C)O)no2)C[C@H]1F [Example 217, (E)-1-((3R,4R)-3-((7-(8-chloronaphthalen-1-yl)-8-fluoro-2-(((2R,7aS)-2-fluorotetrahydro-1H-pyrrolizin-7a(5H)-yl)methoxy)pyrido[4,3-d]pyrimidin-4-yl)(methyl)amino)-4-fluoropyrrolidin-1-yl)-3-(3-(2-hydroxypropan-2-yl)-1,2,4-oxadiazol-5-yl)prop-2-en-1-one]
10 to 100 | CN(CC1CN(C(=O)/C=C/[C@@H]2CCN2C)C1)c1nc(OC[C@@]23CCCN2C[C@H](F)C3)nc2c(F)c(-c3cccc4cccc(Cl)c34)ncc12 [Example 218, (E)-1-(3-(((7-(8-chloronaphthalen-1-yl)-8-fluoro-2-(((2R,7aS)-2-fluorotetrahydro-1H-pyrrolizin-7a(5H)-yl)methoxy)pyrido[4,3-d]pyrimidin-4-yl)(methyl)amino)methyl)azetidin-1-yl)-3-((S)-1-methylazetidin-2-yl)prop-2-en-1-one]
10 to 100 | CN(CC1CN(C(=O)/C=C/[C@H]2CCN2C)C1)c1nc(OC[C@@]23CCCN2C[C@H](F)C3)nc2c(F)c(-c3cccc4cccc(Cl)c34)ncc12 [Example 219, (E)-1-(3-(((7-(8-chloronaphthalen-1-yl)-8-fluoro-2-(((2R,7aS)-2-fluorotetrahydro-1H-pyrrolizin-7a(5H)-yl)methoxy)pyrido[4,3-d]pyrimidin-4-yl)(methyl)amino)methyl)azetidin-1-yl)-3-((R)-1-methylazetidin-2-yl)prop-2-en-1-one]
10 to 100 | CCN1CC[C@@H]1/C=C/C(=O)N1CC[C@@H](N(C)c2nc(OC[C@@]34CCCN3C[C@H](F)C4)nc3c(F)c(-c4cccc5cccc(Cl)c45)ncc23)C1 [Example 223, (E)-1-((R)-3-((7-(8-chloronaphthalen-1-yl)-8-fluoro-2-(((2R,7aS)-2-fluorotetrahydro-1H-pyrrolizin-7a(5H)-yl)methoxy)pyrido[4,3-d]pyrimidin-4-yl)(methyl)amino)pyrrolidin-1-yl)-3-((R)-1-ethylazetidin-2-yl)prop-2-en-1-one]
10 to 100 | CN(c1nc(OC[C@@]23CCCN2C[C@H](F)C3)nc2c(F)c(-c3cccc4cccc(Cl)c34)ncc12)[C@@H]1CCN(C(=O)/C=C/[C@H]2CCN2CC2COC2)C1 [Example 224, (E)-1-((R)-3-((7-(8-chloronaphthalen-1-yl)-8-fluoro-2-(((2R,7aS)-2-fluorotetrahydro-1H-pyrrolizin-7a(5H)-yl)methoxy)pyrido[4,3-d]pyrimidin-4-yl)(methyl)amino)pyrrolidin-1-yl)-3-((R)-1-(oxetan-3-ylmethyl)azetidin-2-yl)prop-2-en-1-one]
10 to 100 | CN(c1nc(OC[C@@]23CCCN2C[C@H](F)C3)nc2c(F)c(-c3cccc4ccc(F)c(Cl)c34)ncc12)[C@@H]1CCN(C(=O)C#CCN2CC(F)C2)C1 [Example 225, 1-((R)-3-((7-(8-chloro-7-fluoronaphthalen-1-yl)-8-fluoro-2-(((2R,7aS)-2-fluorohexahydro-1H-pyrrolizin-7a-yl)methoxy)pyrido[4,3-d]pyrimidin-4-yl)(methyl)amino)pyrrolidin-1-yl)-4-(3-fluoroazetidin-1-yl)but-2-yn-1-one]
10 to 100 | CN(c1nc(OC[C@@]23CCCN2C[C@H](F)C3)nc2c(F)c(-c3cccc4cccc(Cl)c34)ncc12)[C@@H]1CCN(C(=O)/C=C/c2ncncc2F)C1 [Example 230, (E)-1-((R)-3-((7-(8-chloronaphthalen-1-yl)-8-fluoro-2-(((2R,7aS)-2-fluorotetrahydro-1H-pyrrolizin-7a(5H)-yl)methoxy)pyrido[4,3-d]pyrimidin-4-yl)(methyl)amino)pyrrolidin-1-yl)-3-(5-fluoropyrimidin-4-yl)prop-2-en-1-one]

SMILES | IC50 [nM]
CN(CC1CN(C(=O)/C=C/[C@@H]2CCN2C)C1)c1nc(OC[C@@]23CCCN2C[C@H](F)C3)nc2c(F)c(-c3cccc4ccc(F)c(Cl)c34)ncc12 [Example 220, (E)-1-(3-(((7-(8-chloro-7-fluoronaphthalen-1-yl)-8-fluoro-2-(((2R,7aS)-2-fluorotetrahydro-1H-pyrrolizin-7a(5H)-yl)methoxy)pyrido[4,3-d]pyrimidin-4-yl)(methyl)amino)methyl)azetidin-1-yl)-3-((S)-1-methylazetidin-2-yl)prop-2-en-1-one] | < 10
CN(CC1CN(C(=O)/C=C/[C@H]2CCN2C)C1)c1nc(OC[C@@]23CCCN2C[C@H](F)C3)nc2c(F)c(-c3cccc4ccc(F)c(Cl)c34)ncc12 [Example 221, (E)-1-(3-(((7-(8-chloro-7-fluoronaphthalen-1-yl)-8-fluoro-2-(((2R,7aS)-2-fluorotetrahydro-1H-pyrrolizin-7a(5H)-yl)methoxy)pyrido[4,3-d]pyrimidin-4-yl)(methyl)amino)methyl)azetidin-1-yl)-3-((R)-1-methylazetidin-2-yl)prop-2-en-1-one] | < 10
CN(c1nc(OC[C@@]23CCCN2C[C@H](F)C3)nc2c(F)c(-c3cccc4ccc(F)c(Cl)c34)ncc12)[C@@H]1CCN(C(=O)/C=C/[C@H]2CCN2CCO)C1 [Example 222, (E)-1-((R)-3-((7-(8-chloro-7-fluoronaphthalen-1-yl)-8-fluoro-2-(((2R,7aS)-2-fluorotetrahydro-1H-pyrrolizin-7a(5H)-yl)methoxy)pyrido[4,3-d]pyrimidin-4-yl)(methyl)amino)pyrrolidin-1-yl)-3-((R)-1-(2-hydroxyethyl)azetidin-2-yl)prop-2-en-1-one] | < 10
CN(CC1CN(C(=O)/C=C/c2nc(C(C)(C)O)no2)C1)c1nc(OCC23CCCN2CCC3)nc2c(F)c(-c3cccc4ccc(F)c(Cl)c34)ncc12 [Example 229, (E)-1-(3-(((7-(8-chloro-7-fluoronaphthalen-1-yl)-8-fluoro-2-((tetrahydro-1H-pyrrolizin-7a(5H)-yl)methoxy)pyrido[4,3-d]pyrimidin-4-yl)(methyl)amino)methyl)azetidin-1-yl)-3-(3-(2-hydroxypropan-2-yl)-1,2,4-oxadiazol-5-yl)prop-2-en-1-one] | < 10
